Counter-ions that a name gives are not always drawn.
Legend:
[1] = target: T1, recombinant guanylate cyclase reporter cell line (Rattus norvegicus, UniProt P20595); assay: Effect on a recombinant guanylate cyclase reporter cell line; assay type: cell-based; settings: for MEC: minimum effective concentration
T1 construct: expressed in transfected cells
T1 sequence (P20595 1-619): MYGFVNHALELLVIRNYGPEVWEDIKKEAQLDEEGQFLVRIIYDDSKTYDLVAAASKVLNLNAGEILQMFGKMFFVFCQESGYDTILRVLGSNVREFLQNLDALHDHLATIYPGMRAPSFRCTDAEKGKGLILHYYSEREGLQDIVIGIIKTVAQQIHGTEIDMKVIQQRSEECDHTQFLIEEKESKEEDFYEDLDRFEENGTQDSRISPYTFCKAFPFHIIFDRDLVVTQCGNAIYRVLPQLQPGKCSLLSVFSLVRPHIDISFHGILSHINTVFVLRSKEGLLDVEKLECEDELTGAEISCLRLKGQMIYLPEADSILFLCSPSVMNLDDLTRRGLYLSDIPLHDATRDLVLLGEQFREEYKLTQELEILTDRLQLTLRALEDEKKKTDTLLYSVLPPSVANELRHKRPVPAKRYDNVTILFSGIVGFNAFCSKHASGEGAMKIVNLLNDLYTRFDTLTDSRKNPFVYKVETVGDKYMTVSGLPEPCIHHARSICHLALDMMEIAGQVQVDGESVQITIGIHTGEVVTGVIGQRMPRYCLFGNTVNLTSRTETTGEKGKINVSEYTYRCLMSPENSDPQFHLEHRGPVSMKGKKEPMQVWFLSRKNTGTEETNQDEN
T1 sequence (P19686 1-690 partner): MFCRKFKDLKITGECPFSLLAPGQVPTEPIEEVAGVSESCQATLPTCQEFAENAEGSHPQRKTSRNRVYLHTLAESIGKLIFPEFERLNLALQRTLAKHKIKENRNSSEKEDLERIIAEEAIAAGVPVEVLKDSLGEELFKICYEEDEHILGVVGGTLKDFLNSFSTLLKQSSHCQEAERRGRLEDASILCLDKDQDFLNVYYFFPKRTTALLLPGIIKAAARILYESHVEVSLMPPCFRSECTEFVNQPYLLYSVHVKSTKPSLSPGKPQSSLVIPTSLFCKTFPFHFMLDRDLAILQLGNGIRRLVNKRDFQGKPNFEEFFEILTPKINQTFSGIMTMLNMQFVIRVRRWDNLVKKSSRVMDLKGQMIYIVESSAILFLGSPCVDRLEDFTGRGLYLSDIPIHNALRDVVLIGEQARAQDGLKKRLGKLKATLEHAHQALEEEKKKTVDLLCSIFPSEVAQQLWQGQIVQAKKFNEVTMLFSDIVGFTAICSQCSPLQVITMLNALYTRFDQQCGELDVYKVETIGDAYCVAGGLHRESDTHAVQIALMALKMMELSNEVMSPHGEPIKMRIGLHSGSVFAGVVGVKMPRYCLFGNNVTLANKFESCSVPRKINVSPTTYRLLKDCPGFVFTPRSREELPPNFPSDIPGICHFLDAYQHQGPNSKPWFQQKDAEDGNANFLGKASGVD
Protocol: B-1. Effect on a Recombinant Guanylate Cyclase Reporter Cell Line
The cellular activity of the compounds according to the invention was determined using a recombinant guanylate cyclase reporter cell line, as described in F. Wunder et al., Anal. Biochem. 339, 104-112 (2005).

[2] = Pharmacokinetic parameters following intravenous administration in rats; assay type: in vivo, male Wistar rats
Protocol: (§1) B-5. Determination of Pharmacokinetic Parameters Following Intravenous and Oral Administration
(§2) The pharmacokinetic parameters of the compounds according to the invention were determined in male Wistar rats and/or in female beagles and/or in cynomolgus monkeys and/or in male CD-1 mice. Intravenous administration in the case of mice and rats was carried out by means of a species-specific plasma/DMSO formulation, and in the case of dogs and monkeys by means of a water/PEG400/ethanol formulation. In all species, oral administration of the dissolved substance was performed via gavage, based on a water/PEG400/ethanol formulation.
(§3) An internal standard (which may also be a chemically unrelated substance) was added to the samples of the compounds of the invention, calibration samples and qualifiers, and there followed protein precipitation by means of acetonitrile in excess. Addition of a buffer solution matched to the LC conditions, and subsequent vortexing, was followed by centrifugation at 1000 g. The supernatant was analysed by LC-MS/MS using C18 reversed-phase columns and variable mobile phase mixtures. The substances were quantified via the peak heights or areas from extracted ion chromatograms of specific selected ion monitoring experiments.
(§4) The plasma concentration/time plots determined were used to calculate the pharmacokinetic parameters such as AUC, Cmax, t1/2 (terminal half-life), F (bioavailability), MRT (mean residence time) and CL (clearance), by means of a validated pharmacokinetic calculation program.
(§5) Since the substance quantification was performed in plasma, it was necessary to determine the blood/plasma distribution of the substance in order to be able to adjust the pharmacokinetic parameters correspondingly. For this purpose, a defined amount of substance was incubated in K3 EDTA whole blood of the species in question in a rocking roller mixer for 20 min. After centrifugation at 1000 g, the plasma concentration was measured (by means of LC-MS/MS; see above) and determined by calculating the ratio of the Cblood/Cplasma value.

[3] = Pharmacokinetic parameters following oral administration in rats; assay type: in vivo, male Wistar rats; settings: for F: bioavailability
Protocol: as §1, §2, §3, §4, §5

EC50 ([1]; half maximal effective concentration)	MEC [1]	AUCnorm ([2]; intravenous administration)	MRT ([2]; male, Wistar, rat, plasma, intravenous administration)	clearance ([2]; male, Wistar, rat, plasma, intravenous administration, read-out: CLplasma (converted))	half-life ([2]; male, Wistar, rat, plasma, intravenous administration, read-out: t½ (converted))	AUCnorm [3]	F [3]	MRT ([3]; male, Wistar, rat, plasma, read-out: MRT)	half-life ([3]; male, Wistar, rat, plasma, read-out: t½ (converted))	Half live in comparison to example 174 in WO 2012/058132 ([2]; after i.v. application)	mean residence time (MRT) in comparison to example 174 in WO 2012/058132 ([2]; after i.v. application)	SMILES
1.9 nM	0.3 nM	3.09 kg·h/L	5.66 h	5.33 mL/min/kg	4.24 h	0.25 kg·h/L	8.01%	7.46 h	4.65 h			O=C(O)c1cnn(C2CCCN(c3cc(Cl)ccc3-c3ccc(N4CCN(CC(F)F)CC4)cc3)C2)c1C(F)F (single isomer, unassigned; enantiomer 2) [Example 19, 1-[1-{4-Chloro-4′-[4-(2,2-difluoroethyl)piperazin-1-yl][biphenyl]-2-yl}piperidin-3-yl]-5-(difluoromethyl)-1H-pyrazole-4-carboxylic acid hydrochloride (Enantiomer 2)]
	1.6 nM	2.29 kg·h/L				2.11 kg·h/L	91.7%			longer	longer	O=C(O)c1cnn(C2CCCN(c3cc(Cl)ccc3-c3ccc(N4CCN(CC(F)(F)F)CC4)cc3)C2)c1C(F)F (single isomer, unassigned; enantiomer 1) [Example 20, 1-[1-[5-Chloro-2-[4-[4-(2,2,2-trifluoroethyl)piperazin-1-yl]phenyl]phenyl]-3-piperidyl]-5-(difluoromethyl)pyrazole-4-carboxylic acid (Enantiomer 1)]
	0.3 nM	1.40 kg·h/L				0.84 kg·h/L	59.9%					CCCN1CCN(c2ccc(-c3ccc(Cl)cc3N3CCCC(n4ncc(C(=O)O)c4C(F)F)C3)cc2)CC1 (single isomer, unassigned; enantiomer 2) [Example 5, 1-{1-[4-Chloro-4′-(4-propylpiperazin-1-yl)[biphenyl]-2-yl]piperidin-3-yl}-5-(difluoromethyl)-1H-pyrazole-4-carboxylic acid hydrochloride (Enantiomer 2)]
